# According to patent publication US20230002352A1, “SULFONAMIDE DERIVATIVES AS CTPS1 INHIBITORS” (Step Pharma S.A.S., priority 2019, published 2023):
# Where two headings read alike, the source gives them in different places.
# Key:
# human CTPS1 = molecular target: T1, human CTPS1 (Homo sapiens, UniProt P17812); assay: Human CTPS1 enzyme inhibition (ADP-Glo Max assay); format: biochemical; details: ADP-Glo Max assay, read-out: CTPS1 (Human CTPS1 Enzyme Inhibition data grouped by potency range, IC50)
# T1 construct: purchased Proteros biostructures GmbH
# T1 sequence (P17812 1-591): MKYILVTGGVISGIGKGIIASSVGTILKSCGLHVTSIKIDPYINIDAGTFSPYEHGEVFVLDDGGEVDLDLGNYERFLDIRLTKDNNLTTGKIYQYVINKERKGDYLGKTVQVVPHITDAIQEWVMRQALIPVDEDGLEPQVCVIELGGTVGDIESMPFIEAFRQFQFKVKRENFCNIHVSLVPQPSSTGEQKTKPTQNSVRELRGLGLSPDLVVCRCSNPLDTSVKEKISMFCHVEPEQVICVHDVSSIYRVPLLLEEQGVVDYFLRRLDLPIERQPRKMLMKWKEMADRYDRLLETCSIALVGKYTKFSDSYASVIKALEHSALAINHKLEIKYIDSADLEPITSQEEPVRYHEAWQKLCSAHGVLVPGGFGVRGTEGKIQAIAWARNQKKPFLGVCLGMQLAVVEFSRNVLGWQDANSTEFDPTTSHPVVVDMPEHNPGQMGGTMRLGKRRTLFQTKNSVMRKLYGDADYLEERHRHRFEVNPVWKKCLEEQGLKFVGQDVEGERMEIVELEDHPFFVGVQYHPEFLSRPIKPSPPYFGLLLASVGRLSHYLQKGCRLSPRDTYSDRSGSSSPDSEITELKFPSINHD
# Procedure, shortened: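 Full-length FLAG-His-tagged human CTPS1 and compound were preincubated 10 min at 25 °C in 50 mM Tris pH 8.0, 10 mM MgCl2, 0.01% Tween-20, 2 mM L-cysteine. Substrate mix: ATP 0.31 mM, GTP 0.034 mM, UTP 0.48 mM, glutamine 0.186 mM; linear-phase reaction at 25 °C. ADP-Glo Max luminescence; IC50 from inhibition curve.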
# human CTPS1 versus CTPS2 = assay: Human CTPS1 versus CTPS2 selectivity assessment by RapidFire/MS analysis; format: biochemical
# Protocol: Biological Example 2—RapidFire/MS-Based Enzyme Selectivity Assays.
# Human CTPS1 Versus CTPS2 Selectivity Assessment by RapidFire/MS Analysis.
# The enzyme inhibitory activities against each target isoform of interest may be determined for the compounds of the invention using an optimised RapidFire high-throughput mass spectrometry (RF/MS) assay format. RF/MS assays for both human CTPS1 and CTPS2 may be performed in assay buffer consisting of 50 mM HEPES (Merck), 20 mM MgCl2, 5 mM KCl, 1 mM DTT, 0.01% Tween-20, pH to 8.0 accordingly. Human full-length active C-terminal FLAG-His-tag CTPS1 (UniProtKB-P17812, CTPS[1-591]-[…]) may be obtained from Proteros biostructures GmbH. Human full length active C-terminal FLAG-His-Avi tagged CTPS2 (UniProtKB-Q9NRF8, CTPS2 [1-586]-[…]) may be obtained from Harker Bio.
# Human CTPS (1 or 2) protein may be prepared in 1× assay buffer to the final working protein concentration required for the reaction. A 2 uL volume per well of 2×CTPS (1 or 2) protein may be mixed with 40 nL of compound using acoustic (ECHO) delivery and incubated for 10 minutes at 25° C. Each isoform enzymatic reaction may be subsequently initiated by addition of 2 uL per well of a 2× substrate mix in assay buffer. For hCTPS1: ATP (0.3 mM), UTP (0.2 mM), GTP (0.07 mM) and L-glutamine (0.1 mM). For hCTPS2: ATP (0.1 mM), UTP (0.04 mM), GTP (0.03 mM) and L-glutamine (0.1 mM). Each mixture may be incubated for an appropriate amount of time per isoform within the determined linear phase of the reaction at 25° C. A 60 uL volume of stop solution (1% formic acid with 0.5 uM ^13C9-^15N3-CTP in H2O) may be added and the plate immediately heat-sealed and centrifuged for 10 minutes at 4,000 rpm. Following centrifugation, plates may be loaded onto the Agilent RapidFire microfluidic solid phase extraction system coupled to an AP14000 triple quadrupole mass spectrometer (RF/MS) for analysis.
# In all cases, the enzyme converts UTP to CTP. Highly specific and sensitive multiple reaction monitoring (MRM) MS methods may be optimised for the detection of the enzymatic reaction product, CTP, and the stable isotope labelled product standard ^13C9-^15N3-CTP. Readout for data analysis may be calculated as the ratio between the peak area of the product CTP and the internal standard ^13C9-^15N3-CTP. For data reporting, the following equation may be used: […]
# For each screening plate, the means of the negative (DMSO) and positive control values were used for the calculation of the respective assay window (S/B) and Z′ values. The median of the respective control values was used for calculation of percent inhibition according to the following equation: […]
# Percentage inhibition was then plotted against compound concentration, and the 50% inhibitory concentration (IC50) was determined from the resultant concentration-response curve.
# Fold selectivity between CTPS1 and CTPS2 was subsequently calculated according to the following equation: […]
Compound,IC50 (human CTPS1; Table 23),Selectivity (fold selectivity between CTPS1 and CTPS2) (human CTPS1 versus CTPS2; Table 26),IC50 (human CTPS1; Table 24),Selectivity (fold selectivity between CTPS1 and CTPS2) (human CTPS1 versus CTPS2; Table 27)
"CCOc1cncc(-c2ccc(NC(=O)C3(c4ccnc(NS(=O)(=O)C5CC5)n4)CCOCC3)nc2)n1 [Example P115, 4-(2-(Cyclopropanesulfonamido)pyrimidin-4-yl)-N-(5-(6-ethoxypyrazin-2-yl)pyridin-2-yl)tetrahydro-2H-pyran-4-carboxamide]",≤ 100 nM,+++ (>60 fold (+++)),–,–
CCOc1cncc(-c2ccc(C(=O)NCc3ccnc(NS(=O)(=O)C4CC4)n3)cc2)n1 [Example P118],≤ 100 nM,+++ (>60 fold (+++)),–,–
CC(C)(C(=O)Nc1ccc(-c2cncc(C3CC3)n2)cn1)c1ccnc(NS(=O)(=O)C2CC2)n1 [Example P125],100 to 1000 nM,++ (>30-60 fold (++)),–,–
CC(C)(C(=O)Nc1ccc(-c2cncc(C3CC3)n2)cc1F)c1ccnc(NS(=O)(=O)C2CC2)n1 [Example P128],100 to 1000 nM,+ (2-30 fold (+)),–,–
CC(C)c1cncc(-c2ccc(NC(=O)C(C)(C)c3ccnc(NS(=O)(=O)C4CC4)n3)cc2)n1 [Example P132],100 to 1000 nM,++ (>30-60 fold (++)),–,–
CCOc1cncc(-c2ccc(NC(=O)C3(c4ccnc(NS(=O)(=O)C5CC5)n4)CCCC3)nc2)n1 [Example P136],≤ 100 nM,+++ (>60 fold (+++)),–,–
CCOc1cncc(-c2ccc(NC(=O)C3(c4ccnc(NS(=O)(=O)C5CC5)n4)CCOCC3)c(F)c2)n1 [Example P143],≤ 100 nM,+++ (>60 fold (+++)),–,–
CCOc1cncc(-c2ccc(NC(=O)C(CCOC)c3ccnc(NS(=O)(=O)C4CC4)n3)nc2)n1 (stereo not shown) [Example P145],≤ 100 nM,+++ (>60 fold (+++)),–,–
CCOc1cncc(-c2ccc(NC(=O)C(CCOC)c3ccnc(NS(=O)(=O)C4CC4)n3)c(F)c2)n1 (stereo not shown) [Example P146],≤ 100 nM,+++ (>60 fold (+++)),–,–
CCOc1cncc(-c2ccc(NC(=O)C(F)(CC)c3ccnc(NS(C)(=O)=O)n3)nc2)n1 (stereo not shown) [Example P151],≤ 100 nM,+++ (>60 fold (+++)),–,–
CCOc1cncc(-c2cnc(NC(=O)C(CC)c3ccnc(NS(=O)(=O)C4CC4)n3)c(C)c2)n1 (stereo not shown) [Example P155],≤ 100 nM,+ (2-30 fold (+)),–,–
CCC(C(=O)Nc1ncc(-c2cncc(OC)n2)cc1F)c1ccnc(NS(=O)(=O)C2CC2)n1 (stereo not shown) [Example P158],100 to 1000 nM,+ (2-30 fold (+)),–,–
CCC(C(=O)Nc1ccc(-c2cncc(OC)n2)cn1)c1ccnc(NS(=O)(=O)C2CC2)n1 (stereo not shown) [Example P159],≤ 100 nM,+++ (>60 fold (+++)),–,–
CCOc1cncc(-c2ccc(NC(=O)C(CC)c3ccnc(NS(=O)(=O)C4CC4)n3)c(C)c2)n1 (stereo not shown) [Example P161],≤ 100 nM,+ (2-30 fold (+)),–,–
CCOc1cncc(-c2cnc(NC(=O)C(CC)c3ccnc(NS(=O)(=O)C4CC4)n3)c(F)c2)n1 (stereo not shown) [Example P162],≤ 100 nM,++ (>30-60 fold (++)),–,–
CCOc1cncc(-c2ccc(NC(=O)C(C)(CC)c3ccnc(NS(=O)(=O)C4CC4)n3)nc2)n1 (stereo not shown) [Example P163],≤ 100 nM,+++ (>60 fold (+++)),–,–
CCOc1cncc(-c2ccc(NC(=O)C(OC)c3ccnc(NS(=O)(=O)C4CC4)n3)cc2)n1 (stereo not shown) [Example P164],≤ 100 nM,+ (2-30 fold (+)),–,–
CCOc1cncc(-c2ccc(NC(=O)C(C)(C)c3cncc(NS(=O)(=O)C4CC4)n3)nc2)n1 [Example P195],≤ 100 nM,+++ (>60 fold (+++)),–,–
CCOc1cncc(-c2ccc(NC(=O)C(C)(C)c3cncc(NS(=O)(=O)C4CC4)n3)cc2)n1 [Example P196],≤ 100 nM,+++ (>60 fold (+++)),–,–
CCOc1cncc(-c2ccc(NC(=O)C3(c4cncc(NS(=O)(=O)C5CC5)n4)CCOCC3)nc2)n1 [Example P197],≤ 100 nM,+++ (>60 fold (+++)),–,–
CC(C)Oc1cncc(-c2ccc(C(=O)NC(C)(C)c3cncc(NS(=O)(=O)C4CC4)n3)c(F)c2)n1 [Example P221],100 to 1000 nM,+ (2-30 fold (+)),–,–
CC(C)(NC(=O)c1ccc(-c2cncc(C(F)(F)F)n2)cc1)c1cncc(NS(=O)(=O)C2CC2)n1 [Example P222],100 to 1000 nM,+ (2-30 fold (+)),–,–
"CCOc1cncc(-c2ccc(NC(=O)C3(c4ccnc(NS(=O)(=O)C5CC5)n4)CCC(=O)CC3)nc2)n1 [Example P226, 1-(2-(Cyclopropanesulfonamido)pyrimidin-4-yl)-N-(5-(6-ethoxypyrazin-2-yl)pyridin-2-yl)-4-oxocyclohexanecarboxamide]",–,–,≤ 100 nM,+++ (>60 fold (+++))
CCOc1cncc(-c2ccc(NC(=O)C3(c4ccnc(NS(=O)(=O)C5CC5)n4)CCC(F)(F)CC3)nc2)n1 [Example P242],–,–,≤ 100 nM,+++ (>60 fold (+++))
"CCOc1cncc(-c2ccc(NC(=O)C3(c4ccnc(NS(=O)(=O)C5CC5)n4)CCC4(CC3)OCCO4)nc2)n1 [Example P244, 8-(2-(cyclopropanesulfonamido)pyrimidin-4-yl)-N-(5-(6-ethoxypyrazin-2-yl)pyridin-2-yl)-1,4-dioxaspiro[4.5]decane-8-carboxamide]",–,–,≤ 100 nM,+++ (>60 fold (+++))
CCOc1cncc(-c2ccc(NC(=O)C3(c4ccnc(NS(=O)(=O)C5CC5)n4)CCN(S(C)(=O)=O)CC3)nc2)n1 [Example P251],–,–,≤ 100 nM,+++ (>60 fold (+++))
